Consider eight compounds from ChEMBL document CHEMBL1145164, “2-Acetylamino-3-[4-(2-acetylamino-2-carboxyethylsulfanylcarbonylamino)- phenylcarbamoylsulfanyl]propionic acid and its derivatives as a novel class of glutathione reductase inhibitors” (J Med Chem, 2005).

In experiment [1] the target is T1, Glutathione reductase (Saccharomyces cerevisiae S288c, UniProt P41921).
T1 sequence (P41921 whole entry): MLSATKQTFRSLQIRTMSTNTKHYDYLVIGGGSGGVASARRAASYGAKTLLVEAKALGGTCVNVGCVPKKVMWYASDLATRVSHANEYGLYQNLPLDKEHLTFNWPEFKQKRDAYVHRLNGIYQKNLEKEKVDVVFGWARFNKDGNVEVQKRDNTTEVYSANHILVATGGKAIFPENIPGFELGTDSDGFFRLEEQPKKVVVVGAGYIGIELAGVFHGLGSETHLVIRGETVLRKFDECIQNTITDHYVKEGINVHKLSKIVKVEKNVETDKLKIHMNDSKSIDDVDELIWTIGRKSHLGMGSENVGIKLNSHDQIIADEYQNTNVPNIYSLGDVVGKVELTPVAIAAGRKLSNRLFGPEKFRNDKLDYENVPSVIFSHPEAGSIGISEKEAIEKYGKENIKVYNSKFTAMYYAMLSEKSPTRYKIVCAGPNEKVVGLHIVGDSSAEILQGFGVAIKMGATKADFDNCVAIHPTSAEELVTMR
Description: Inhibition of yeast glutathione reductase over 30 minutes pH 7.4 at 25 degree C.

Experiment [2] concerns the target T1, Glutathione reductase. Description: Inhibition of yeast glutathione reductase for 30 minutes pH 7.4 at 25 degree C at 0.2 mM.
For experiment [3], the target named is T1, Glutathione reductase. Description: Inhibition of yeast glutathione reductase done for 30 minutes in pH 7.4 at 25 degree C with compound (0.2 mM).
Experiment [4] addresses T2, Glutathione S-transferase A1 (Homo sapiens) (UniProt P08263).
T2 sequence (whole entry): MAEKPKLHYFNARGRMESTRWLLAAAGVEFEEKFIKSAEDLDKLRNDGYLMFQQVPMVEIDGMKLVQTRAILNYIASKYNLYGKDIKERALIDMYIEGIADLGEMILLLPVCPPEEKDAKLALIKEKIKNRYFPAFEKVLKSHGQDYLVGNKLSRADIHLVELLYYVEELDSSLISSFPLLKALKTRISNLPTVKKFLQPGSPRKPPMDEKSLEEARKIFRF
Description: Inhibitory activity of compound against glutathione S-transferase. The conditions noted are these: concentration not given here.

Experiment [5] deals with T3, Glutathione reductase (Saccharomyces cerevisiae S288c) (UniProt P41921).
T3 sequence (whole entry): T1 sequence (P41921 whole entry)
Description: Kinact value for yeast glutathione reductase

By IC50 is commonly meant the concentration that inhibits the measured activity by half. With `CC(=O)NC(CSC(=O)NCCCCCCNC(=O)SCC(NC(C)=O)C(=O)O)C(=O)O` (stereo unspecified), the IC50 at Glutathione reductase [1] was found to be 455 µM.
For orientation: Ki means the dissociation constant of the complex between target and ligand, obtained from inhibition or displacement. The term inhibition denotes how much of the control response was suppressed. Lower therefore signals a weak effect. For the compound `CC(=O)NC(CSC(=O)Nc1ccc(NC(=O)SCC(NC(C)=O)C(=O)O)cc1)C(=O)O` (stereo unspecified), at Glutathione reductase [2], the inhibition constant (Ki) worked out at 88 µM. At Glutathione reductase [3], the IC50 was found to be 50 µM. In experiment [4], this compound returned an inhibition of 13%. Besides, the Kinact in experiment [5] was 0.1 min⁻¹.
`CC(=O)NC(CSC(=O)Nc1ccc(Cc2ccc(NC(=O)SCC(NC(C)=O)C(=O)O)cc2)cc1)C(=O)O` (stereo unspecified) returned an IC50 against Glutathione reductase [1] of 85 µM.
The compound `CC(=O)NC(CSC(=O)Nc1cccc(NC(=O)SCC(NC(C)=O)C(=O)O)c1)C(=O)O` (stereo unspecified) showed an IC50 on Glutathione reductase [1] of 149 µM.
Same read-out and setting: the figure for `CC(=O)NC(CSC(=O)NC1CCC(CC2CCC(NC(=O)SCC(NC(C)=O)C(=O)O)CC2)CC1)C(=O)O` (stereo unspecified) is 477 µM.
Same read-out and setting: the figure for `CC(=O)NC(CSC(=O)NCCCCNC(=O)SCC(NC(C)=O)C(=O)O)C(=O)O` (stereo unspecified) is 515 µM.
Take `O=NN(CCCl)C(=O)NCCCl` [CARMUSTINE]: the IC50 on Glutathione reductase [1] came out at 441 µM.
Still for that read-out and setting: for `CC(=O)NC(CSC(=O)NCc1ccc(NC(=O)SCC(NC(C)=O)C(=O)O)cc1)C(=O)O` (stereo unspecified) the value was 117 µM.
